Test results from patent publication US10294202B2, “Pyrrolidinones as herbicides” (FMC Corporation, priority 2013, dated 2019).

Columns and labels:
Assay in all cases: Test E preemergence herbicide test
Parameters in all cases: key: 0 = no effect, 100 = complete control
velvetleaf = assay type: in vivo, Abutilon theophrasti
From the text: (§1) Seeds of plant species selected from corn (Zea mays), soybean (Glycine max), velvetleaf (Abutilon theophrasti), lambsquarters (Chenopodium album), wild poinsettia (Euphorbia heterophylla), pigweed, palmer (palmer pigweed, Amaranthus palmeri), waterhemp (common waterhemp, Amaranthus rudis), surinam grass (Brachiaria decumbens), crabgrass, large (large crabgrass, Digitaria sanguinalis), crabgrass, Brazil (Brazilian crabgrass, Digitaria horizontalis), panicum, fall (fall panicum, Panicum dichotomiflorum), foxtail, giant (giant foxtail, Setaria faberii), foxtail, green (green foxtail, Setaria viridis), goosegrass (Eleusine indica), johnsongrass (Sorghum halepense), ragweed (common ragweed, Ambrosia elatior), barnyardgrass (Echinochloa crus-galli), sandbur (southern sandbur, Cenchrus echinatus), arrowleaf […] rhombifolia), ryegrass, Italian (Italian ryegrass, Lolium multiflorum), dayflower, VA (Virginia dayflower, Commelina virginica), field bindweed (Convolvulus arvensis), morningglory (Ipomoea coccinea), nightshade (eastern black nightshade, Solanum ptycanthum), kochia (Kochia scoparia), nutsedge, yellow (yellow nutsedge, Cyperus esculentus), cocklebur (common cocklebur, Xanthium strumarium), smartweed (ladysthumb smartweed, Polygonum Persicaria) and beggarticks (hairy beggarticks, Bidens pilosa), were planted into a silt loam soil and treated preemergence with test chemicals formulated in a non-phytotoxic solvent mixture which included a surfactant. Treated plants and controls were maintained in a greenhouse for 21 days, after which time all species were compared to controls and visually evaluated. Plant response ratings, summarized in Table E, are based on a scale of 0 to 100 where 0 is no effect and 100 is complete control. A dash (-) response means no test result.

foxtail, green = assay type: in vivo, Setaria viridis
From the text: as §1

morningglory = assay type: in vivo, Ipomoea coccinea
From the text: as §1

nightshade = assay type: in vivo, Solanum ptycanthum
From the text: as §1

Row | Structure (SMILES) | Plant response rating, Velvetleaf (velvetleaf; 16 g ai/ha) | Plant response rating, Velvetleaf (velvetleaf; 31 g ai/ha) | Plant response rating, Velvetleaf (velvetleaf; 62 g ai/ha) | Plant response rating, Velvetleaf (velvetleaf; 125 g ai/ha) | Plant response rating, Velvetleaf (velvetleaf; 250 g ai/ha) | Plant response rating, Foxtail, Green (foxtail, green; 16 g ai/ha) | Plant response rating, Foxtail, Green (foxtail, green; 31 g ai/ha) | Plant response rating, Foxtail, Green (foxtail, green; 62 g ai/ha) | Plant response rating, Foxtail, Green (foxtail, green; 125 g ai/ha) | Plant response rating, Foxtail, Green (foxtail, green; 250 g ai/ha) | Plant response rating, Morningglory (morningglory; 16 g ai/ha) | Plant response rating, Morningglory (morningglory; 31 g ai/ha) | Plant response rating, Morningglory (morningglory; 62 g ai/ha) | Plant response rating, Morningglory (morningglory; 125 g ai/ha) | Plant response rating, Morningglory (morningglory; 250 g ai/ha) | Plant response rating, Nightshade (nightshade; 16 g ai/ha) | Plant response rating, Nightshade (nightshade; 31 g ai/ha) | Plant response rating, Nightshade (nightshade; 62 g ai/ha) | Plant response rating, Nightshade (nightshade; 125 g ai/ha) | Plant response rating, Nightshade (nightshade; 250 g ai/ha)
1 | O=C1NCC(c2ccc(F)cc2)C1C(=O)Nc1ccccc1F (racemic) [Compound 16] | 0 | 0 | 0 | 0 | 0 | 0 | 0 | 10 | 25 | 95 | 0 | 0 | 0 | 0 | 0 | 0 | 0 | 0 | 0 | 0
2 | O=C1NCC(c2cccc(Br)c2)C1C(=O)Nc1ccccc1F (stereo not drawn) [Compound 66] | 0 | 0 | 0 | 0 | 0 | 0 | 0 | 0 | 35 | 60 | 0 | 0 | 0 | 0 | 0 | 0 | 0 | 0 |  | 0
3 | O=C1NCC(c2ccc(C(F)(F)F)cc2)C1C(=O)Nc1ccc(F)c(F)c1F (stereo not drawn) [Compound 232] |  | 0 | 0 | 20 | 80 |  | 80 | 95 | 98 | 98 |  | 0 | 0 | 0 | 35 |  | 25 | 75 | 98 | 
